Legend:
living cells = conditions: cited from earlier work
Protocol: Long-term cell tracking have recently attracted intensive research interest, as it can provide meritorious information on cell therapy and its processes, as well as on studying the mechanism of cancer pathogenesis, invasion and metastasis. Consequently, the application of the fluorescent nanofibrous hydrogel in long-term cell tracking was investigated. The HeLa cancer cells were incubated with the nanofiber suspension for 4 h at 37 °C. Subsequently, the nanofiber-labeled cells were subcultured for designated time intervals, followed by imaging with CLSM.

[1] = Gelation after GSH addition, vial inversion method; type: physicochemical
Protocol: Therefore, rheological measurement of the hydrogel was carried out.
5.0 mg of Rhodamine-GFFYE-CS-EE and 3 equiv. of Na2CO3 (in order to adjust the pH value of the final solution) were dissolved in 1.0 mL of PBS buffer (pH 7.4), and then 4 equiv. of reduced glutathione (GSH) was added to the solution. After about 20 minutes at room temperature, the self-supporting hydrogel was formed. Moreover, after dilution of the hydrogel with aqueous solution, the fluorescent nanofiber suspension was obtained.

HeLa cancer cells = experiment: Cellular uptake and imaging by CLSM; type: cell-based, Human; conditions: Rhodamine B concentration 100 μM, 2 h, FBS-free DMEM, excitation 543 nm
Protocol: The HeLa cancer cells were cultured in confocal imaging chambers (LAB-TEK, Chambered Coverglass System) at 37 °C. After 80% confluence, the medium was removed and the adherent cells were washed twice with 1 × PBS buffer. The nanofiber and precursor in FBS-free DMEM medium at the Rhodamine B concentration of 100 μM were then added to the chamber, respectively. After incubation for 2 h, the cells were washed with 1 × PBS buffer and then imaged with confocal laser scanning microscope (CLSM, Zeiss LSM 410, Jena, Germany). The fluorescent signal from the Rhodamine B was collected upon excitation at 543 nm with a 560 nm longpass barrier filter. The HepG2 cancer cellular imaging was performed following the same experimental procedures.

4T1 tumor-bearing mice [2] = experiment: Ex vivo fluorescence imaging of tumor and organs (Maestro system); conditions: intravenous, 0.1 mL of 100 μM, 24 h post-injection; excitation 523 nm
Protocol: Eight-week-old BALB/c mice were purchase from the Laboratory Animal Center of the Academy of Military Medical Sciences (Beijing, China). To establish tumor-bearing mouse model, a 4T1 cancer cell suspension containing 5 × 10^5 cells (50 μL) was injected subcutaneously into the mice at the right axillae.
4T1 tumor-bearing mice were intravenously administrated with 0.1 mL of fluorescent nanofiber or precursor (100 μM). At 24 h post-injection, the mice were sacrificed, the tissues including liver, kidney, spleen, intestine, heart, lung, stomach, skin, muscle and tumor were excised and imaged using the Maestro system (CRi, Inc., Woburn, USA). Light with a central wavelength of 523 nm was selected as the excitation source. Spectral imaging from 560 to 900 nm with 10 nm steps was carried out with an exposure time of 150 ms.

4T1 tumor-bearing mice [3] = experiment: Fluorescence imaging in tissue slices (CLSM); type: in vivo, BALB/c mice; conditions: intravenous, 0.1 mL of 100 μM, 0.5 h post-injection; vessels immunostained with PECAM-1
Protocol: At 0.5 h post administration of 0.1 mL of fluorescent nanofiber and precursor (100 μM), respectively, the mice were sacrificed. Subsequently, the tumor tissues were dissected, fixed in 4% paraformaldehyde for 2 h, incubated in 20% sucrose/PBS overnight and embedded in Optimal Cutting Temperature (OCT) compound (Tissue-Tek). Sections (6 μm) were immunostained with monoclonal antibody against platelet/endothelial cell adhesion molecule 1 (PECAM-1; PharMingen). Alexa Fluor 633-conjugated antirabbit antibody was used as secondary antibody (Molecular Probes). The cell nuclei were stained with DAPI. The tumor slices were imaged by CLSM with excitation wavelength at 405 nm, 543 nm, and 633 nm for DAPI, Rhodamine B, and PECAM-1, respectively. Furthermore, at 24 h post administration of nanofiber and precursor, respectively, the slices of various tissues including tumor, intestine, liver, spleen, kidney, and heart were obtained following the aforementioned experimental procedures. After that, the cell nuclei in the tissue slices were stained with DAPI, which was followed by imaging with CLSM.

time of gelation process after addition of GSH ([1]; 37 °C) | time to hydrogel formation after addition of GSH ([1]; room temperature) [h] | Compound | number of passages over which living cells can be traced (living cells) | cellular uptake / spatial distribution in cells (HeLa cancer cells) | ex vivo fluorescence signal in tumor (4T1 tumor-bearing mice [2]) | red fluorescence in tumor slices (tumor accumulation) (4T1 tumor-bearing mice [3])
– | – | CC(=O)Oc1ccc2c(c1)Oc1cc(OC(C)=O)ccc1C21OC(=O)c2cc(CCl)ccc21 [CellTrackerTM Green CMFDA] | no more than 3 passages | – | – | –
around 30 min | 2 | Rhodamine-GFFYE-CS-EE [precursor, Rhodamine B-capped self-assembling peptide with cystamine succinate disulfide linker and hydrophilic EE; precursor of the supramolecular hydrogel] | – | internalized in the cell cytoplasm | far weaker | negligible red fluorescence
